Results on 1 molecule are retold here after patent publication US20140200144A1, “TREATMENT OF CROPS WITH A LOWER ALKYL N[…] ALTER CELL CYCLE AND WATER REGULATION” (1,4 GROUP, INC., priority 2013, published 2014).

The subject of experiment [1] is potato tubers. The conditions noted are these: J. Zalewsky, personal communication; cited from earlier work.
Experiment [2] relates to ABA levels. The conditions noted are these: Campbell et al. 2010; cited from earlier work.
The test system of experiment [3] is sprouting root and tuber crops, bulb crops, ornamentals. The experiment in a line: Effect on sprouting crops. The experiment is classed as in vivo.
The test system of experiment [4] is berries. The note with it: freshly harvested berries; copending application; cited from earlier work.
For experiment [5], the system named is potato meristem transcripts. The experiment is described as follows: Microarray transcriptional profiling (POCI 44K oligo array) of potato meristems. Format: cell-based, potato (Russet Burbank).
Procedure: On the day of treatment, tubers were transferred from 3° to 20° C. and were immediately washed in running tap water. After drying at room temperature in the dark, the tubers were placed into 4 L airtight containers. A beaker containing about 5 g of activated charcoal was placed in the chamber containing the control tubers prior to sealing (Control). DMN (0.15 mL liquid) was placed on cotton wool in a beaker and sealed in the treatment chamber (DMN3 days). The chambers were incubated in the dark at 20° C. for three days. At this time tubers were removed and the lateral meristems were isolated using a curette with the aid of a dissecting microscope. […] One group of DMN-treated tubers was incubated for a further two days in air (dark, 20° C.) prior to meristem isolation (DMN3 days+2).
RNA was isolated from frozen meristems by grinding to a fine powder in a mortar and pestle followed by isolation and purification using a Ribopure Kit (www.ambio.com). RNA was quantified using a BioSpec nano and quality was assessed by gel electrophoresis and visualization of ribosomal RNA. Total RNA (500 ng) was denatured in the presence of a T7 promoter primer and cDNA was synthesized using reverse transcriptase. The cDNA was used as a template for in vitro transcription by synthesis with T7RNA polymerase, which amplified target material and incorporated cyanine 3-labeled CTP. The labeled cRNA was purified using spin columns and quantified using a spectrophotometer. […] Probe generation and hybridization to the array were conducted through a contract to Gene Logic (www.genelogic.com). Twelve samples were used to probe against the POCI array, three samples from eco-dormant meristems (harvested directly from 3° C. storage), three samples from meristems isolated from tubers treated with DMN for three days in a closed container, three samples treated with water for three days in a closed container, three samples treated with DMN for three days and then exposed to air for two days. The three samples for each treatment were biological replicates.
Analysis of the microarray was conducted in two stages; total array data was examined using a linear model and the software limma, and pathway analysis was conducted by linking the potato sequences to the Arabidopsis thaliana. […] The data was corrected for background and normalized between arrays using a loess method. […] The use of limma for analysis of oligo arrays was accomplished by analyzing data from a single emission channel.
The array data was transformed to log base 2 and normalized between arrays using default parameters in GeneMathsXT software package (www.applied-maths.com). […] Pathway Studio 8.0 (www.ariadnegenomics.com) was utilized to determine metabolic changes that were associated with DMN treated for three days compared to controls.
Experiment [6] deals with potato meristems. The experiment is described as follows: 3H-thymidine incorporation into DNA of meristems from DMN-treated tubers. Format: cell-based, potato (Russet Burbank). The conditions noted are these: for Thymidine incorporation (labeled thymidine taken up incorporated into DNA): meristems from tubers treated with DMN 3 days at 20° C. As for the experimental part: On the day of treatment, tubers were transferred from 3° to 20° C. and were immediately washed in running tap water. After drying at room temperature in the dark, the tubers were placed into 4 L airtight containers. A beaker containing about 5 g of activated charcoal was placed in the chamber containing the control tubers prior to sealing (Control). DMN (0.15 mL liquid) was placed on cotton wool in a beaker and sealed in the treatment chamber (DMN3 days). The chambers were incubated in the dark at 20° C. for three days. At this time tubers were removed and the lateral meristems were isolated using a curette with the aid of a dissecting microscope. Either used fresh (thymidine incorporation) or immediately frozen in liquid nitrogen and stored at −80° C., as previously described (Campbell et al., 1996). One group of DMN-treated tubers was incubated for a further two days in air (dark, 20° C.) prior to meristem isolation (DMN3 days+2). Samples were also collected from untreated non-dormant buds at day 0 immediately after removal from 3° C. storage; henceforth referred to as eco-dormant (Lang et al. 1987)
Freshly excised meristems were washed with deionized water and groups of 20 buds were incubated on 1 mL of buffer (10 mM Mes/KOH; pH 5.7) containing 0.9 μCi of ^3H-thymidine (60 μCi/μmole; American Radiolabeled Chemicals Inc., St. Louis, Mo.). The meristems were incubated on an oscillating shaker (100 rpm) at room temperature in the dark. After three hours, meristems were removed from the incubation media, washed extensively with deionized water followed by two washes with incubation buffer containing 5 mM unlabeled thymidine, blotted dry, frozen in liquid nitrogen, and stored at −80° C. To determine incorporation, the frozen meristems were homogenized in 1 mL ice-cold 10% (w/v) TCA. After standing on ice for 3-4 hours, the samples were vigorously mixed. An aliquot was removed and placed in a scintillation vial to determine total uptake. A second equal aliquot was removed and placed on a microfiber filter (GF/C; Whatman). […]
Background: Uptake of a labelled nucleoside into DNA is a usual measure of proliferation.

In experiment [7] the test system is potato meristem transcripts. The experiment in a line: QT-PCR analysis of potato meristem transcripts. Format: cell-based, potato (Russet Burbank). The conditions noted are these: DMN for three days, vs control. Here is the method:
On the day of treatment, tubers were transferred from 3° to 20° C. and were immediately washed in running tap water. After drying at room temperature in the dark, the tubers were placed into 4 L airtight containers. A beaker containing about 5 g of activated charcoal was placed in the chamber containing the control tubers prior to sealing (Control). DMN (0.15 mL liquid) was placed on cotton wool in a beaker and sealed in the treatment chamber (DMN3 days). The chambers were incubated in the dark at 20° C. for three days. At this time tubers were removed and the lateral meristems were isolated using a curette with the aid of a dissecting microscope. […]
A set of transcripts was selected for further analysis to confirm the microarray data and to determine the possible cell cycle position of tubers treated with DMN. […] Therefore, primers were determined by isolating a longer DNA sequence from the DFCI-Potato Gene Index corresponding to the microarray oligonucleotide and searching that sequence for primers using the Applied Biosystems Primer Express 3.0 software (www.appliedbiosystems.com). cDNA template for QT-PCR was prepared from mRNA isolated from potato meristems treated with DMN for three days as described above. PCR reactions were run on a StepOne™ Real Time System and analyzed using Step One Software v2.0 (www.appliedbiosystems.com) to determine ΔΔCT values on a log10 scale. […]

The subject of experiment [8] is potato tubers. The conditions noted are these: Beveridge et al. 1981; cited from earlier work.
Where [9] appears, read: DMN three days vs three-day control.

`Cc1ccc(C)c2ccccc12` [DMN, 1,4-dimethylnaphthalene]: the “turgidity and tuber fresh weight” value in experiment [1] is “increase in turgidity and maintenance of tuber fresh weight”. Further, in experiment [2], the “ABA levels over control tissues” value is recorded as “did not result in an increase in ABA levels”. In addition, the “effect on sprouting root and tuber crops” value in experiment [3] (beet, carrot, cassaca, dasheen (taro), ginger, ginseng, horseradish, parsnip, pototato, sweet potato, turnip, yam) is “effective”. Moreover, the “effect on sprouting ornamentals” value in experiment [3] (flowering bulbs) is given as “effective”. The “effect on sprouting bulb crops” value in experiment [3] (garlic, leek, onion, shallot) is recorded as “effective”. The “hydration and shelf life of berries” value in experiment [4] was “maintain improved hydration”. Further, in experiment [5] (setting [9]), the “expression of transcripts that encode cyclin or cyclin-like proteins” value was “decreased expression”; the “transcripts assigned to water regulation and responses to salt stress” value is reported as “increased”. Further, the “expression of the Cln1 homolog CYCA1” value in experiment [5] (DMN treatment) was “decrease”. In experiment [5] (exposure to DMN), the “Nucleoside diphosphate kinase (NDPK) transcript” value is listed as “down regulated”. In experiment [6] (Run 1, control 14.3 ± 2.1%), the “Thymidine incorporation (labeled thymidine taken up incorporated into DNA)” value stood at 6.7 ± 0.4%. For the same molecule, the “Thymidine incorporation (labeled thymidine taken up incorporated into DNA)” value in experiment [6] (Run 2, control 12.5 ± 0.2%) was determined as 6.5 ± 1.0%. In addition, the “reduction in thymidine incorporation into DNA” value in experiment [6] (non-dormant tuber meristems following DMN treatment, vs control) was “about 50%”. In experiment [7], the “transcripts for CDKB1, CYCD3, PCNA, and UTPase (G1/S-phase or early S-phase)” value is on record as “decreased”; the “transcripts for KRP1, KRP2, MYC2, WRKY, and CYCA3” value was “elevated”. For the same molecule, the “premature sprouting of potato tubers” value in experiment [8] is “shown to prevent premature sprouting”.
